Data from patent US20050123917A1, “Method for characterising and/or identifying active mechanisms of antimicrobial test substances” (priority 2001, published 2005).
In brackets after ≈: the same amount, converted by molar mass. Like-named read-outs stand apart in the source and are kept apart here. Starred links: 1 amine or outer side, 2 acyl side, 3 side chain; linkers in the order of their positions; H or OH if unused. Positions of bridges follow the written chain, without caps; N, C: chain ends. Non-standard residues stand in square brackets, D forms with d. Residues, ends and D or L forms follow the SMILES beside them. Chains are numbered I, II in the order given. Actinocin(9to1) = Cc1c2oc3c(C)ccc(C(=O)[*:1])c3nc-2c(C(=O)[*:2])c(N)c1=O; NMeV = CN[C@H](C(=O)O)C(C)C; Orn = NCCC[C@H](N)C(=O)O; Sar = CNCC(=O)O

Test system: Bacillus subtilis 168
Test: Determination of the minimum inhibiting agent concentration (MIC)
Format: cell-based
Experimental: The test substance may be an inhibiting agent. The concentration of inhibiting agent with which the bacterial culture is treated should preferably be in the range of 0.1× to 20× the minimum inhibiting agent concentration (MIC) for the test substance. The minimum inhibiting agent concentration is the minimum concentration of an antibiotic which inhibits the growth of a test germ over a period of 18-24 hours. The inhibiting agent concentration can therefore be determined according to standard microbiological procedures (see for example The-National Committee for Clinical Laboratory Standards. Methods for dilution antimicrobial susceptibility tests for bacteria that grow aerobically; approved standard-fifth edition. NCCLS document M7-A5 [ISBN 1-56238-394-9]. NCCLS, 940 West Valley Road, Suite 1400, Wayne, Pa. 19087-1898 USA, 2000.). The test spectra are recorded from a microbial culture that has been treated with the inhibiting agent in one, or preferably in several concentrations.
For the production of an overnight culture, 22 ml of Belitsky Minimal Medium (Stuhlke et al. (1993) Temporal activation of beta-glucauase synthesis in Bacillus subtilis is mediated by the GTP pool. J. Gen. Microbiol. 1993 Sep; 139 (pt 9):2041-5) was injected with an aliquot of the test germ Bacillus subtilis 168 from a permanent culture stored at −80° C., and incubated at 37° C. and 200 rpm.

[1] = Bacillus subtilis, B. subtilis 168, Belitsky Minimal Medium, 18-24 hrs at 37° C., read-out: MIC
[2] = B. subtilis 168, Belitsky Minimal Medium, 18-24 hrs at 37° C.

Compound	MIC [1]	MIC [2]	other results
CO[C@@H]1C[C@@H](C[C@H]2CC[C@H](C)[C@H]([C@@H](C)C(=O)O)O2)O[C@]2(O[C@](C)([C@H]3CC[C@@](C)([C@@H]4O[C@@H]([C@H]5O[C@@](O)(CO)[C@H](C)C[C@@H]5C)C[C@@H]4C)O3)C[C@H]2C)[C@@H]1C [nigericin]	1 µg/mL (≈ 1.38 µM)		
O=c1[nH]c(=O)n([C@H]2C[C@H](O)[C@@H](CO)O2)cc1F [5-fluor-2-desoxyuridine]		0.25 µg/mL (≈ 1.02 µM)	
CO[C@@]1(NC(=O)Cc2cccs2)C(=O)N2C(C(=O)O)=C(COC(N)=O)CS[C@@H]21 [cefoxitin]	2 µg/mL (≈ 4.68 µM)		
CC[C@@H](C(=O)[C@@H](C)[C@@H](O)[C@H](C)CCc1ccc(C)c(O)c1C(=O)O)[C@H]1O[C@](CC)([C@H]2CC[C@](O)(CC)[C@H](C)O2)C[C@@H]1C [lasalocid]	1 µg/mL (≈ 1.69 µM)		
N[C@@H]1CONC1=O [D-cycloserine]		64 µg/mL (≈ 627 µM)	
CC[n+]1c(-c2ccccc2)c2cc(N)ccc2c2ccc(N)cc21.[Br-] [ethidiumbromid]		4 µg/mL	
Cc1onc(-c2ccccc2)c1C(=O)N[C@@H]1C(=O)N2[C@@H]1SC(C)(C)[C@@H]2C(=O)O [oxacillin]	0.5 µg/mL (≈ 1.25 µM)		
CN[C@@H]1[C@H](O)[C@H](NC)[C@H]2O[C@@]3(O)C(=O)C[C@@H](C)O[C@H]3O[C@@H]2[C@H]1O [spectinomycin]	16 µg/mL (≈ 48.1 µM)		
CN(C)[C@@H]1C(=O)C(C(N)=O)=C(O)[C@@]2(O)C(=O)C3=C(O)c4c(O)cccc4[C@@](C)(O)[C@H]3C[C@@H]12 [tetracyclin]		16 µg/mL (≈ 36 µM)	
mersacidin		16 µg/mL	
Nc1ccc2cc3ccc(N)cc3nc2c1 [proflavin]	8 µg/mL (≈ 38.2 µM)		
COc1cccc2c1C(=O)c1c(O)c3c(c(O)c1C2=O)C[C@@](O)(C(=O)CO)C[C@@H]3O[C@H]1C[C@H](N)[C@H](O)[C@H](C)O1 [doxorubicin]	8 µg/mL (≈ 14.7 µM)		
CC1(C)S[C@@H]2[C@H](NC(=O)Cc3ccccc3)C(=O)N2[C@H]1C(=O)O [penicillin G]		4 µg/mL (≈ 12 µM)	
ristocetin		0.5 µg/mL	
NC[C@H]1O[C@H](O[C@H]2[C@H](O)[C@@H](O[C@H]3O[C@H](CO)[C@@H](O)[C@H](N)[C@H]3O)[C@H](N)C[C@@H]2N)[C@H](O)[C@@H](O)[C@@H]1O [kanamycin]	0.5 µg/mL (≈ 1.03 µM)		
CO[C@H]1/C=C/O[C@@]2(C)Oc3c(C)c(O)c4c(O)c(c(/C=N/N5CCN(C)CC5)c(O)c4c3C2=O)NC(=O)/C(C)=C\C=C\[C@H](C)[C@H](O)[C@@H](C)[C@@H](O)[C@@H](C)[C@H](OC(C)=O)[C@@H]1C [rifampicin]	0.25 µg/mL (≈ 0.304 µM)		
neomycin		0.125 µg/mL	
[N-]=[N+]=CC(=O)OC[C@H](N)C(=O)O [azaserine]	4 µg/mL (≈ 23.1 µM)		
C/C(=C\C(=O)OCCCCCCCCC(=O)O)C[C@@H]1OC[C@H](C[C@@H]2O[C@H]2[C@@H](C)[C@H](C)O)[C@@H](O)[C@H]1O [mupirocin]	0.0625 µg/mL (≈ 0.125 µM)		
CC[C@H]1OC(=O)[C@H](C)[C@@H](O[C@H]2C[C@@](C)(OC)[C@@H](O)[C@H](C)O2)[C@H](C)[C@@H](O[C@@H]2O[C@H](C)C[C@H](N(C)C)[C@H]2O)[C@](C)(OC)C[C@@H](C)C(=O)[C@H](C)[C@@H](O)[C@]1(C)O [clarithromycin]	0.0625 µg/mL (≈ 0.0836 µM)		
gramicidin A		4 µg/mL	
COc1ccc(C[C@H](N)C(=O)N[C@H]2[C@@H](O)[C@H](n3cnc4c(N(C)C)ncnc43)O[C@@H]2CO)cc1 [puromycin]	8 µg/mL (≈ 17 µM)		
polymyxin B-sulfate		16 µg/mL	
CC[C@H]1OC(=O)[C@H](C)[C@@H](O[C@H]2C[C@@](C)(OC)[C@@H](O)[C@H](C)O2)[C@H](C)[C@@H](O[C@@H]2O[C@H](C)C[C@H](N(C)C)[C@H]2O)[C@](C)(O)C[C@@H](C)C(=O)[C@H](C)[C@@H](O)[C@]1(C)O [erythromycin]	0.5 µg/mL (≈ 0.681 µM)		

Compound	MIC [1]	MIC [2]	other results
CO[C@@]1(NC(=O)C(C(=O)O)c2ccc(O)cc2)C(=O)N2C(C(=O)O)=C(CSc3nnnn3C)CO[C@@H]21 (some centres unmarked) [moxalactam]	4 µg/mL (≈ 7.69 µM)		
COc1cccc(OC)c1C(=O)N[C@@H]1C(=O)N2[C@@H]1SC(C)(C)[C@@H]2C(=O)O [methicillin]	0.125 µg/mL (≈ 0.329 µM)		
CC(=O)O[C@H]1C[C@@]2(C)[C@@H](C[C@@H](O)[C@H]3[C@@]4(C)CC[C@@H](O)[C@@H](C)[C@@H]4CC[C@@]32C)/C1=C(\CCC=C(C)C)C(=O)O [fusidic acid]	0.5 µg/mL (≈ 0.968 µM)		
CO[C@@]12[C@H](COC(N)=O)C3=C(C(=O)C(C)=C(N)C3=O)N1C[C@@H]1N[C@@H]12 [mitomycin C]		0.25 µg/mL (≈ 0.748 µM)	
[H]/N=C(/N)N[C@H]1[C@H](O)[C@@H](O)[C@H](O[C@@H]2O[C@@H](C)[C@](O)(C=O)[C@H]2O[C@@H]2O[C@@H](CO)[C@H](O)[C@@H](O)[C@@H]2NC)[C@@H](N/C(N)=N\[H])[C@@H]1O [streptomycin]	128 µg/mL (≈ 220 µM)		
C/C=C/C/C=C/CCC(=O)[C@H]1O[C@H]1C(N)=O [cerulenin]	16 µg/mL (≈ 71.7 µM)		
CO[C@@H]1[C@@H](OC(N)=O)[C@@H](O)[C@H](Oc2ccc3c(O)c(NC(=O)c4ccc(O)c(CC=C(C)C)c4)c(=O)oc3c2C)OC1(C)C [novobiocin]	2 µg/mL (≈ 3.26 µM)		
NC[C@H]1O[C@H](O[C@H]2[C@H](O)[C@@H](O[C@H]3O[C@H](CO)[C@@H](O)[C@H](N)[C@H]3O)[C@H](N)C[C@@H]2N)[C@H](N)C[C@@H]1O [tobramycin]	0.0625 µg/mL (≈ 0.134 µM)		
CC[C@H]1OC(=O)[C@H](C)[C@@H](O[C@H]2C[C@@](C)(OC)[C@@H](O)[C@H](C)O2)[C@H](C)[C@@H](O[C@@H]2O[C@H](C)C[C@H](N(C)C)[C@H]2O)[C@](C)(O)C[C@@H](C)CN(C)[C@H](C)[C@@H](O)[C@]1(C)O [azithromycin]	1 µg/mL (≈ 1.34 µM)		
CN[C@H](CC(C)C)C(=O)N[C@H]1C(=O)N[C@@H](CC(N)=O)C(=O)N[C@H]2C(=O)N[C@H]3C(=O)N[C@H](C(=O)N[C@H](C(=O)O)c4cc(O)cc(O)c4-c4cc3ccc4O)[C@H](O)c3ccc(c(Cl)c3)Oc3cc2cc(c3O[C@@H]2O[C@H](CO)[C@@H](O)[C@H](O)[C@H]2O[C@H]2C[C@](C)(N)[C@H](O)[C@H](C)O2)Oc2ccc(cc2Cl)[C@H]1O [vancomycin]			MIC (Bacillus subtilis, 168): 0.25 µg/mL (≈ 0.173 µM)
O=C(N[C@H](CO)[C@H](O)c1ccc([N+](=O)[O-])cc1)C(Cl)Cl [chloramphenicol]	4 µg/mL (≈ 12.4 µM)		
teichoplanin		0.125 µg/mL	
enniatin		16 µg/mL	
CCn1cc(C(=O)O)c(=O)c2ccc(C)nc21 [nalidixic acid]	32 µg/mL (≈ 138 µM)		
CC[C@@]1([C@@H]2O[C@@H]([C@H]3O[C@@](O)(CO)[C@H](C)C[C@@H]3C)C[C@@H]2C)CC[C@H]([C@]2(C)CC[C@]3(C[C@H](O)[C@@H](C)[C@@H]([C@@H](C)[C@@H](OC)[C@H](C)C(=O)O)O3)O2)O1 [monensin]	4 µg/mL (≈ 5.96 µM)		
O=c1[nH]cc(F)c(=O)[nH]1 [5-fluoro-uracile]	0.25 µg/mL (≈ 1.92 µM)		
ramoplanin		1 µg/mL	
gentamicin		0.125 µg/mL	
O=C1CN(/N=C/c2ccc([N+](=O)[O-])o2)C(=O)N1 [nitrofurantoin]	16 µg/mL (≈ 67.2 µM)		
COc1cc(Cc2cnc(N)nc2N)cc(OC)c1OC [trimethoprim]	0.5 µg/mL (≈ 1.72 µM)		
Cc1c2oc3c(C)ccc(C(=O)N[C@@H]4C(=O)N[C@H](C(C)C)C(=O)N5CCC[C@H]5C(=O)N(C)CC(=O)N(C)[C@@H](C(C)C)C(=O)O[C@@H]4C)c3nc-2c(C(=O)N[C@@H]2C(=O)N[C@H](C(C)C)C(=O)N3CCC[C@H]3C(=O)N(C)CC(=O)N(C)[C@@H](C(C)C)C(=O)O[C@@H]2C)c(N)c1=O [actinomycin D] (I: T[dV]P[Sar][NMeV] / II: T[dV]P[Sar][NMeV]; ester I:1-I:C, II:1-II:C; linker I:N-II:N via Actinocin(9to1))		1 µg/mL (≈ 0.797 µM)	
CC(C)C[C@@H]1NC(=O)[C@H](CCCN)NC(=O)[C@H](C(C)C)NC(=O)[C@@H]2CCCN2C(=O)[C@@H](Cc2ccccc2)NC(=O)[C@H](CC(C)C)NC(=O)[C@H](CCCN)NC(=O)[C@H](C(C)C)NC(=O)[C@@H]2CCCN2C(=O)[C@@H](Cc2ccccc2)NC1=O [gramicidin S] (cyclo(V[Orn]L[dF]PV[Orn]L[dF]P))		1 µg/mL (≈ 0.876 µM)	
CCC[C@@H]1C[C@@H](C(=O)N[C@@H]([C@H]2O[C@H](SC)[C@H](O)[C@@H](O)[C@H]2O)[C@H](C)Cl)N(C)C1 [clindamycin]	2 µg/mL (≈ 4.71 µM)		
